Data: the SangsterLogP compilation

Assay: method code SF-AS, from DOI: 10.1002/hlca.19830660215
Settings: not given

| SMILES | logP |
| --- | --- |
| COc1ccccc1C(=O)NCCN(C)C | 1.14 |
| CCN(CC)CCCNC(=O)c1ccccc1OC | 1.76 |
| CCN(CC)CCNC(=O)c1ccccc1OC | 1.98 |

Results, then the compound that gave them:

| logP | SMILES |
| --- | --- |
| 1.1 | CN(C)CCNC(=O)c1ccccc1 |
| 0.29 | COc1ccccc1C(=O)N1CCN(C)CC1 |
| 1.27 | COc1ccccc1C(=O)NCCCN(C)C |
| 0 | COc1ccccc1C(=O)NCCN |

Same assay, conditions: pH 11.0

| SMILES | logD |
| --- | --- |
| CCN(CC)CCCNC(=O)c1ccccc1 | 1.56 |
| NCCCCNC(=O)c1ccccc1 | 0.58 |
| NCCNC(=O)c1ccccc1 | 0.06 |

More lines, now with the values ahead:

| logD | SMILES |
| --- | --- |
| 0.3 | NCCCNC(=O)c1ccccc1 |
| 1.27 | CN(C)CCCNC(=O)c1ccccc1 |
| 1.84 | CCN(CC)CCNC(=O)c1ccccc1 |
| 0.58 | COc1ccccc1C(=O)NCCCCN |
